Values quoted from earlier work in patent publication US5693668A, “Acetylcholinesterase inhibitors” (priority 1989, dated 1997).

Details: Bronaugh and Stewart, J. Pharm. Sci. 1984; cited from earlier work

With “polyethylene glycol 20 Oleyl ether [PEG 20 oleyl ether]” as the substance, how does the “effect on integrity or permeation characteristics of the skin” value read?
Its value is “not found to affect the integrity or the permeation characteristics of the skin”.
